We go through 13 molecules from US20220363686A1 (AiCuris GmbH & Co. KG, priority 2018, published 2022).

Data set [1] deals with HBV core protein (C-terminal truncated core protein containing 149 amino acids of the N-terminal assembly domain) (UniProt P03146). The experiment in a line: Biochemical capsid assembly assay (fluorescence quenching). On the set-up: rows headed: Assembly Activity; other: BODIPY-FL labelled core protein, assembly started with NaCl, read after 6 min. The following applies: read-out: Assembly Activity; BODIPY-FL labelled core protein, assembly started with NaCl, read after 6 min. How it is done:
The screening for assembly effector activity was done based on a fluorescence quenching assay published by Zotnick et al. (2007). The C-terminal truncated core protein containing 149 amino acids of the N-terminal assembly domain fused to a unique cysteine residue at position 150 and was expressed in E. coli using the pET expression system (Merck Chemicals, Darmstadt). Purification of core dimer protein was performed using a sequence of size exclusion chromatography steps. In brief, the cell pellet from 1 L BL21 (DE3) Rosetta2 culture expressing the coding sequence of core protein cloned NdeI/XhoI into expression plasmid pET21b was treated for 1 h on ice with a native lysis buffer (Qproteome Bacterial Protein Prep Kit; Qiagen, Hilden). After a centrifugation step the supernatant was precipitated during 2 h stirring on ice with 0.23 g/ml of solid ammonium sulfate. Following further centrifugation the resulting pellet was resolved in buffer A (100 mM Tris, pH 7.5; 100 mM NaCl; 2 mM DTT) and was subsequently loaded onto a buffer A equilibrated CaptoCore 700 column (GE HealthCare, Frankfurt). The column flow through containing the assembled HBV capsid was dialyzed against buffer N (50 mM NaHCO3 pH 9.6; 5 mM DTT) before urea was added to a final concentration of 3M to dissociate the capsid into core dimers for 1.5 h on ice. The protein solution was then loaded onto a IL Sephacryl S300 column. After elution with buffer N core dimer containing fractions were identified by SDS-PAGE and subsequently pooled and dialyzed against 50 mM HEPES pH 7.5; 5 mM DTT. To improve the assembly capacity of the purified core dimers a second round of assembly and disassembly starting with the addition of 5 M NaCl and including the size exclusion chromatography steps described above was performed. From the last chromatography step core dimer containing fractions were pooled and stored in aliquots at concentrations between 1.5 to 2.0 mg/ml at −80° C.
Immediately before labelling the core protein was reduced by adding freshly prepared DTT in a final concentration of 20 mM. After 40 min incubation on ice storage buffer and DTT was removed using a Sephadex G-25 column (GE HealthCare, Frankfurt) and 50 mM HEPES, pH 7.5. For labelling 1.6 mg/ml core protein was incubated at 4° C. and darkness overnight with BODIPY-FL maleimide (Invitrogen, Karlsruhe) in a final concentration of 1 mM. After labelling the free dye was removed by an additional desalting step using a Sephadex G-25 column. Labelled core dimers were stored in aliquots at 4° C. In the dimeric state the fluorescence signal of the labelled core protein is high and is quenched during the assembly of the core dimers to high molecular capsid structures. The screening assay was performed in black 384 well microtiter plates in a total assay volume of 10 μl using 50 mM HEPES pH 7.5 and 1.0 to 2.0 μM labelled core protein. Each screening compound was added in 8 different concentrations using a 0.5 log-unit serial dilution starting at a final concentration of 100 μM, 31.6 μM or 10 μM, In any case the DMSO concentration over the entire microtiter plate was 0.5%. The assembly reaction was started by the injection of NaCl to a final concentration of […] which induces the assembly process to approximately 25% of the maximal quenched signal. 6 min after starting the reaction the fluorescence signal was measured using a Clariostar plate reader (BMG Labtech, Ortenberg) with an excitation of 477 nm and an emission of 525 nm. As 100% and 0% assembly control HEPES buffer containing 2.5 M and 0 M NaCl was used. Experiments were performed thrice in triplicates. EC50 values were calculated by non-linear regression analysis using the Graph Pad Prism 6 software (GraphPad Software, La Jolla, USA).

Data set [2] can be described thus: Cell viability assay (AlamarBlue). As to conditions: human, HepAD38 cells.
Experimental: Using the AlamarBlue viability assay cytotoxicity was evaluated in HepAD38 cells in the presence of 0.3 μg/ml tetracycline, which blocks the expression of the HBV genome. Assay condition and plate layout were in analogy to the anti-HBV assay, however other controls were used. On each assay plate six wells containing untreated HepAD38 cells were used as the 100% viability control, and six wells filled with assay medium only were used as 0% viability control. In addition, a geometric concentration series of cycloheximide starting at 60 μM final assay concentration was used as positive control in each experiment. After six days incubation period Alamar Blue Presto cell viability reagent (ThermoFisher, Dreieich) was added in 1/11 dilution to each well of the assay plate. After an incubation for 30 to 45 min at 37° C. the fluorescence signal, which is proportional to the number of living cells, was read using a Tecan Spectrafluor Plus plate reader with an excitation filter 550 nm and emission filter 595 nm, respectively. Data were normalized into percentages of the untreated control (100% viability) and assay medium (0% viability) before CC50 values were calculated using non-linear regression and the GraphPad Prism 6.0 (GraphPad Software, La Jolla, USA). Mean EC50 and CC50 values were used to calculate the selectivity index (SI=CC50/EC50) for each test compound.
The next data set has as its system HBV. The experiment in a line: Determination of HBV DNA from the supernatants of HepAD38 cells (anti-HBV activity). It is filed as cell-based, hepatitis B virus. As to conditions: Hepatitis B virus, HePAD38, 144 h, HBV DNA in HepAD38 supernatant, day 6, qPCR; read-out: Cell Activity. The method, then:
The anti-HBV activity was analysed in the stable transfected cell line HepAD38, which has been described to secrete high levels of HBV virion particles (Ladner et al., 1997). In brief, HepAD38 cells were cultured at 37° C. at 5% CO2 and 95% humidity in 200 μl maintenance medium, which was Dulbecco's modified Eagle's medium/Nutrient Mixture F-12 (Gibco, Karlsruhe), 10% fetal bovine serum (PAN Biotech Aidenbach) supplemented with 50 μg/ml penicillin/streptomycin (Gibco, Karlsruhe), 2 mM L-glutamine (PAN Biotech, Aidenbach), 400 μg/ml G418 (AppliChem, Darmstadt) and 0.3 μg/ml tetracycline. Cells were subcultured once a week in a 1:5 ratio, but were usually not passaged more than ten times. For the assay 60,000 cells were seeded in maintenance medium without any tetracycline into each well of a 96-well plate and treated with serial half-log dilutions of test compound. To minimize edge effects the outer 36 wells of the plate were not used but were filled with assay medium. On each assay plate six wells for the virus control (untreated HepAD38 cells) and six wells for the cell control (HepAD38 cells treated with 0.3 μg/ml tetracycline) were allocated, respectively. In addition, one plate set with reference inhibitors like BAY 41-4109, entecavir, and lamivudine instead of screening compounds were prepared in each experiment. In general, experiments were performed thrice in triplicates. At day 6 HBV DNA from 100 μl filtrated cell culture supernatant (AcroPrep Advance 96 Filter Plate, […] Supor membran, PALL GmbH, Dreieich) was automatically purified on the MagNa Pure LC instrument using the MagNA Pure 96 DNA and Viral NA Small Volume Kit (Roche Diagnostics, Mannheim) according to the instructions of the manufacturer. EC50 values were calculated from relative copy numbers of HBV DNA In brief, 5 μl of the 100 μl eluate containing HBV DNA were subjected to PCR LC480 Probes Master Kit (Roche) together with 1 μM antisense primer […], 0.5 μM sense primer […], 0.3 μM hybprobes […]-FL and LC640-[…]-PH (TIBMolBiol, Berlin) to a final volume of 12.5 μl. The PCR was performed on the Light Cycler 480 real time system (Roche Diagnostics, Mannheim) using the following protocol: Pre-incubation for 1 min at 95° C., amplification: 40 cycles×(10 sec at 95° C., 50 sec at 60° C., 1 sec at 70° C.), cooling for 10 sec at 40° C. Viral load was quantitated against known standards using HBV plasmid DNA of pCH-9/3091 (Nassal et al., 1990, Cell 63: 1357-1363) and the LightCycler 480 SW 1.5 software (Roche Diagnostics, Mannheim) and ECso values were calculated using non-linear regression with GraphPad Prism 6 (GraphPad Software Inc., La Jolla, USA).

Sequence of HBV core protein (C-terminal truncated core protein containing 149 amino acids of the N-terminal assembly domain) (P03146 whole entry, the tested form may be a part): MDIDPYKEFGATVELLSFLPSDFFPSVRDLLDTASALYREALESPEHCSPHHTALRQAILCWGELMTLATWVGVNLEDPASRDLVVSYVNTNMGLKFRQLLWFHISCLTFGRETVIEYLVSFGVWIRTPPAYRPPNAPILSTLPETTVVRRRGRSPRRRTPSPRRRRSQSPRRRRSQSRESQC

As to `COCC1(N(C)C(=O)c2cnn3c2CN(C(=O)c2cc4c(F)cc(F)cc4[nH]2)CC3)CC1` [Example 8, 5-(4,6-difluoro-1H-indole-2-carbonyl)-N-[1-(methoxymethyl)cyclopropyl]-N-methyl-4H,5H,6H,7H-pyrazolo[1,5-a]pyrazine-3-carboxamide], the IC50 in data set [1] is below 5 µM. Also, the CC50 at 6 days in data set [2] is above 10 µM. Besides, the EC50 in the data set on HBV is below 1 µM.

Regarding `COCC1(N(C)C(=O)c2cnn3c2CN(C(=O)c2cc4ccccc4[nH]2)CC3)CC1` [Example 9, 5-(1H-indole-2-carbonyl)-N-[1-(methoxymethyl)cyclopropyl]-N-methyl-4H,5H,6H,7H-pyrazolo[1,5-a]pyrazine-3-carboxamide], the IC50 in data set [1] is below 5 µM. In data set [2], the CC50 at 6 days is above 10 µM. For the same molecule, in the data set with HBV, the EC50 was below 1 µM.

As to `COCC1(CNC(=O)c2cnn3c2CN(C(=O)c2cc4ccccc4[nH]2)CC3)CC1` [Example 10, 5-(1H-indole-2-carbonyl)-N-{[1-(methoxymethyl)cyclopropyl]methyl}-4H,5H,6H,7H-pyrazolo[1,5-a]pyrazine-3-carboxamide], in data set [1], the IC50 is 5 to 10 µM. In addition, in data set [2], the CC50 at 6 days is above 10 µM. The EC50 with HBV is 1 to 10 µM.

Take `CC(C)OCC1(N(C)C(=O)c2cnn3c2CN(C(=O)c2cc4ccccc4[nH]2)CC3)CC1` [Example 11, 5-(1H-indole-2-carbonyl)-N-methyl-N-{1-[(propan-2-yloxy)methyl]cyclopropyl}-4H,5H,6H,7H-pyrazolo[1,5-a]pyrazine-3-carboxamide]: in data set [1], the IC50 is below 5 µM. In data set [2], this molecule returned a CC50 at 6 days above 10 µM. Besides, the EC50 in the data set with HBV was below 1 µM.

Turning to `CCOCC1(N(C)C(=O)c2cnn3c2CN(C(=O)c2cc4ccccc4[nH]2)CC3)CC1` [Example 12, N-[1-(ethoxymethyl)cyclopropyl]-5-(1H-indole-2-carbonyl)-N-methyl-4H,5H,6H,7H-pyrazolo[1,5-a]pyrazine-3-carboxamide], in data set [1], the IC50 was below 5 µM. In addition, the CC50 at 6 days in data set [2] is above 10 µM. In addition, the EC50 with HBV was below 1 µM.

Take `CN(C(=O)c1cnn2c1CN(C(=O)c1cc3c(Cl)cccc3[nH]1)CC2)C1(CO)CC1` [Example 13, 5-(4-chloro-1H-indole-2-carbonyl)-N-[1-(hydroxymethyl)cyclopropyl]-N-methyl-4H,5H,6H,7H-pyrazolo[1,5-a]pyrazine-3-carboxamide]: the IC50 in data set [1] is below 5 µM. Also, the CC50 at 6 days in data set [2] was above 10 µM. Moreover, in the data set on HBV, the EC50 was below 1 µM.

On to `CCc1cc(F)cc2[nH]c(C(=O)N3CCn4ncc(C(=O)N(C)C5(CO)CC5)c4C3)cc12` [Example 14, 5-(4-ethyl-6-fluoro-1H-indole-2-carbonyl)-N-[1-(hydroxymethyl)cyclopropyl]-N-methyl-4H,5H,6H,7H-pyrazolo[1,5-a]pyrazine-3-carboxamide], for which, in data set [1], the IC50 was below 5 µM. The molecule further returned a CC50 at 6 days in data set [2] above 10 µM. Besides, the EC50 in the data set with HBV is below 1 µM.

In the case of `CN(C(=O)c1cnn2c1CN(C(=O)c1cc3ccccc3[nH]1)CC2)C1(CO)CC1` [Example 15, N-[1-(hydroxymethyl)cyclopropyl]-5-(1H-indole-2-carbonyl)-N-methyl-4H,5H,6H,7H-pyrazolo[1,5-a]pyrazine-3-carboxamide], in data set [1], the IC50 was below 5 µM. This molecule registered a CC50 at 6 days in data set [2] above 10 µM. Also, the EC50 in the data set with HBV is below 1 µM.

For `CN(C(=O)c1cnn2c1CN(C(=O)c1cc3ccccc3[nH]1)CC2)C1(COC(F)F)CC1` [Example 16, N-{1-[(difluoromethoxy)methyl]cyclopropyl}-5-(1H-indole-2-carbonyl)-N-methyl-4H,5H,6H,7H-pyrazolo[1,5-a]pyrazine-3-carboxamide], in data set [1], the IC50 is below 5 µM. The molecule also yielded a CC50 at 6 days in data set [2] above 10 µM. Moreover, the EC50 with HBV is below 1 µM.

For the molecule `O=C(c1cc2ccccc2[nH]1)N1CCn2ncc(C(=O)N3CC(F)(F)CC34CC4)c2C1` [Example 19, 2-(3-{6,6-difluoro-4-azaspiro[2.4]heptane-4-carbonyl}-4H,5H,6H,7H-pyrazolo[1,5-a]pyrazine-5-carbonyl)-1H-indole], the IC50 in data set [1] was below 5 µM. Also, the CC50 at 6 days in data set [2] was above 10 µM. The EC50 with HBV was below 1 µM.

For the molecule `CC1Cn2ncc(C(=O)N(C)C3(COC(F)F)CC3)c2CN1C(=O)c1cc2ccccc2[nH]1` (stereo not drawn) [Example 20, N-{1-[(difluoromethoxy)methyl]cyclopropyl}-5-(1H-indole-2-carbonyl)-N,6-dimethyl-4H,5H,6H,7H-pyrazolo[1,5-a]pyrazine-3-carboxamide], the IC50 in data set [1] is below 5 µM. Further, the CC50 at 6 days in data set [2] was above 10 µM. In addition, the EC50 in the data set on HBV was below 1 µM.

Take `CN(C(=O)c1cnn2c1CN(C(=O)c1cc3c(F)c(F)ccc3[nH]1)CC2)C1(COC(F)F)CC1` [Example 21, 5-(4,5-difluoro-1H-indole-2-carbonyl)-N-{1-[(difluoromethoxy)methyl]cyclopropyl}-N-methyl-4H,5H,6H,7H-pyrazolo[1,5-a]pyrazine-3-carboxamide]: the IC50 in data set [1] is below 5 µM. The same molecule returned a CC50 at 6 days in data set [2] above 10 µM. Moreover, the EC50 with HBV was below 1 µM.

Consider `CCc1cc(F)cc2[nH]c(C(=O)N3CCn4ncc(C(=O)N(C)C5(COC(F)F)CC5)c4C3)cc12` [Example 22, N-{1-[(difluoromethoxy)methyl]cyclopropyl}-5-(4-ethyl-6-fluoro-1H-indole-2-carbonyl)-N-methyl-4H,5H,6H,7H-pyrazolo[1,5-a]pyrazine-3-carboxamide], for which the IC50 in data set [1] was below 5 µM. The molecule also yielded a CC50 at 6 days in data set [2] above 10 µM. In addition, the EC50 in the data set with HBV is below 1 µM.
